Results as given in patent US4900727A, “4H-1-benzopyran-4-one compounds which have anti-inflamatory or immunodulating action” (Hoechst Aktiengesellschaft, priority 1986, dated 1990).
Where a name gives a salt, the structure may show the parent alone. Read-outs that look alike come from different tables or passages of the source.

How the values were obtained:
[1] = test system: carrageenin-induced paw edema in rats; test: Systemic anti-inflammatory action on carrageenin-induced paw edema in rats; type: in vivo, male Charles Foster rats; conditions: decrease in paw volume, 3 and 6 hours after carrageenin, from dose/response curve
Method: Male Charles Foster rats (120-150 g) were fasted for 18 hours, with water ad libitum. The test compound dissolved in distilled water was administered orally. The control group received distilled water. 0/05 ml of 0.5% carrageenin suspension was injected subcutaneously into the plantar region of the left hind paw. Using a Maclab differential volume meter, the paw volume was determined before the carrageenin injection and 3 and 6 hours after the injection. The percentage decrease in paw volume was calculated by the following equation: [formula] The ED50 value was calculated from the dose/response curve. Six animals were used for each group. The results with representative compounds according to the invention and their salts are listed in Table 4, the substituents relating to the following formula Ia: [drawing 11]

[2] = test system: reverse passive Arthus reaction (RPA) in rats; test: Reverse passive Arthus reaction (RPA) in rats; type: in vivo, Charles Foster rats of both sexes; conditions: one hour before RPA, edema vs untreated control; for % inhibition: hydrochloride
Method: Charles Foster rats of both sexes, weighing 150-180 g, were sorted into groups of six animals each. 24 hours before the initiation of the RPA, the rats were shaved from the mid-dorsal region and fasted overnight. The test compounds were administered orally one hour before inducing the Arthus reaction. The RPA reaction was induced by intradermal injection of 0.1 ml of appropriately diluted rabbit anti-BSA serum. Immediately after the intradermal exposure, each rat received 0.5 ml of 0.4% bovine serum albumin intraveneously. Four hours after the intradermal challenge, each group of animals was killed by cervical dislocation. The full thickness of the skin was removed from the back of each animal, and a 12 mm diameter disk was punched out with a metal punch from the site of the antiserum injection. The wet weight of each skin site was determined as soon as possible. The edema caused by the RPA was measured as the difference (expressed in mg) between the wet weight of the site injected with antibody and that injected with normal rabbit serum. The results are expressed as the percentage inhibition or potentiation of the edema by the compound as compared with the edema induced in the untreated control animals.

[3] = Rattus norvegicus, po, 4 h, dose 1.25 mg/kg p.o.
[4] = Rattus norvegicus, po, 4 h, dose 2.5 mg/kg p.o.
[5] = Rattus norvegicus, po, 4 h, dose 5.0 mg/kg p.o.
[6] = Rattus norvegicus, po, 4 h, dose 10.0 mg/kg p.o.
[7] = Rattus norvegicus, po, 4 h, dose 20.0 mg/kg p.o.
[8] = Rattus norvegicus, po, read-out: ED50

| SMILES | inhibition in vivo at 1.25 mg/kg [2, 3] [%] | inhibition in vivo at 2.5 mg/kg [2, 4] [%] | inhibition in vivo at 5 mg/kg [2, 5] [%] | inhibition in vivo at 10 mg/kg [2, 6] [%] | inhibition in vivo at 20 mg/kg [2, 7] [%] | ED50 [1, 8] [mg/kg] | further results |
| --- | --- | --- | --- | --- | --- | --- | --- |
| CN1CC[C@H](c2c(O)cc(O)c3c(=O)cc(-c4ccc(Cl)cc4)oc23)[C@H](O)C1 (racemic) [(±) 4-chlorophenyl H H HCl, 1.5 H2 O, cis-(±)-2-(4-chlorophenyl)-5,7-dihydroxy-8-[4'-(3'-hydroxy-1'-methyl)-piperidinyl]-4H-1-benzopyran-4-one] | – | – | – | – | – | – | ED50 ([1]; p.o.): 7.0 mg/kg |
| Cc1cc(=O)c2c(O)cc(O)c([C@H]3CCN(C)C[C@H]3O)c2o1 (single isomer, unassigned) [(-) CH3 H CH3 HCl, (-)-cis-5,7-Dihydroxy-2-methyl-8-[4'-(3'-hydroxy-1'-methyl)-piperidinyl]-4H-1-benzopyran-4-one hydrochloride] | – | – | – | – | – | – | % inhibition ([2]; dose 1.25 mg/kg p.o., 1.25 mg/kg): 40.31%; % inhibition ([2]; dose 2.5 mg/kg p.o., 2.5 mg/kg): 39.11%; % inhibition ([2]; dose 5.0 mg/kg p.o., 5 mg/kg): 40.13%; % inhibition ([2]; dose 10.0 mg/kg p.o., 10 mg/kg): 45.17%; % inhibition ([2]; dose 20.0 mg/kg p.o., 20 mg/kg): 64.73%; ED50 ([1]; p.o., hydrochloride): 9.0 mg/kg |
| CN1CC[C@H](c2c(O)cc(O)c3c(=O)cc(-c4ccccn4)oc23)[C@H](O)C1 (relative stereo) [(±) 2-Pyridyl H CH3 HCl.1.5 H2 O, cis-(±)-5,7-dihydroxy-2-(2-pyridyl)-8-[4'-(3'-hydroxy-1'-methyl)-piperidinyl]-4H-1-benzopyran-4-one] | 0 | 12 | 43 | 90 | 90 | 5.7 | – |
| Cc1cc(=O)c2c(O)cc(O)c([C@H]3CCN(C)C[C@H]3O)c2o1 (single isomer, unassigned) [(+) CH3 H CH3 HCl, (+)-cis-5,7-Dihydroxy-2-methyl-8-[4'-(3'-hydroxy-1'-methyl)-piperidinyl]-4H-1-benzopyran-4-one hydrochloride] | 40.5 | 48.8 | 57.1 | 50.4 | – | 9.4 | % inhibition ([2]; dose 20.0 mg/kg p.o., 20 mg/kg): 43.24% |
| CN1CC[C@H](c2c(O)cc(O)c3c(=O)cc(-c4ccccc4F)oc23)[C@H](O)C1 (relative stereo) [(±) o-Fluorophenyl H CH3 HCl.2H2 O, cis-(±)-5,7-dihydroxyl-2-(2-fluorophenyl)-8-[4'-(3'-hydroxy-1'-methyl)-piperidinyl]-4H-1-benzopyran-4-one] | 0 | 11.5 | 52.7 | – | – | 7.6 | – |
| CCc1cc(=O)c2c(O)cc(O)c(C3CCN(C)CC3O)c2o1 (mixture of isomers) [(±) C2 H5 H CH3 HCl.1.5 H2 O, cis-5,7-Dihydroxy-2-ethyl-8-[4'-(3'-hydroxy-1'-methyl)-piperidinyl]-4H-1-benzopyran-4-one hydrochloride] | 16 | 34.3 | 41.6 | 43.6 | 77.1 | 10.5 | – |
| CCCc1cc(=O)c2c(O)cc(O)c(C3CCN(C)CC3O)c2o1 (mixture of isomers) [(±) n-C3 H7 H CH3 HCl.H2 O, cis-5,7-Dihydroxy-2-n-propyl-8-[4'-(3'-hydroxy-1'-methyl)-piperidinyl]-4H-1-benzopyran-4-one hydrochloride] | 26 | 32 | 44 | 55 | 65 | 6.8 | – |
| CN1CC[C@H](c2c(O)cc(O)c3c(=O)cc(-c4ccccc4)oc23)[C@H](O)C1 (relative stereo) [(±) Phenyl H CH3 HCl.2H2 O, cis-(±)-5,7-dihydroxy-2-phenyl-8-[4'-(3'-hydroxy-1'-methyl)-piperidinyl]-4H-1-benzopyran-4-one] | 57.5 | 55.6 | 68.1 | 90.6 | 95.7 | 5.7 | – |
| CN1CC[C@H](c2c(O)cc(O)c3c(=O)cc(-c4ccccc4Cl)oc23)[C@H](O)C1 (relative stereo) [(±) o-Chlorophenyl H CH3 HCl.H2 O, cis-(±)-2-(2-chlorophenyl)-5,7-dihydroxy-8-[4'-3'-hydroxy-1'-methyl)-piperidinyl]-4H-benzopyran-4-one] | – | – | – | – | – | 2.7 | inhibition in vivo at 1 mg/kg ([2]; Rattus norvegicus, po, 4 h, dose 1.0 mg/kg p.o.): 37%; inhibition in vivo at 2 mg/kg ([2]; Rattus norvegicus, po, 4 h, dose 2.0 mg/kg p.o.): 60%; inhibition in vivo at 4 mg/kg ([2]; Rattus norvegicus, po, 4 h, dose 4.0 mg/kg p.o.): 80% |
| CN1CC[C@H](c2c(O)cc(O)c3c(=O)cc(-c4ccccc4)oc23)[C@H](O)C1 (single isomer, unassigned) [(-) Phenyl H CH3 HCl.1/2H2 O, cis-(-)-5,7-dihydroxy-2-phenyl-8-[4'-(3'-hydroxy-1'-methyl)-piperidinyl]-4H-1-benzopyran-4-one] | – | 26.2 | 64.5 | 92.2 | – | 1.3 | – |
| CN1CC[C@H](c2c(O)cc(O)c3c(=O)cc(-c4ccc(F)cc4)oc23)[C@H](O)C1 (relative stereo) [(±) p-Fluorophenyl H CH3 HCl.H2 O, cis-(±)-5,7-dihydroxy-2-(4-fluorophenyl)-8-[4'-(3'-hydroxy-1'-methyl)-piperidinyl]-4H-1-benzopyran-4-one] | 24.4 | 37.4 | 61.5 | 90 | 86.2 | 7.4 | – |
| CCCc1cc(=O)c2c(O)cc(O)c(C3CCN(C)CC3O)c2o1 (single isomer, unassigned; (-)) [(-) n-C3 H7 H CH3 HCl.H2 O, cis-(-)-5,7-dihydroxy-2-n-propyl-8-[4'-(3'-hydroxy-1'-methyl)-piperidinyl]-4H-1-benzopyran-4-one] | – | 42.7 | 41.3 | 63.7 | 72.1 | 5.8 | – |
| Cc1cc(=O)c2c(O)cc(O)c(C3CCN(CC4CC4)CC3O)c2o1 (single isomer, unassigned; (-)) [(-) CH3 H [drawing 12] HCl.H2 O, cis-(-)-5,7-Dihydroxy-2-methyl-8-[4'-(1'-cyclopropylmethyl-3'-hydroxy)-piperidinyl]-4H-1-benzopyran-4-one hydrochloride] | – | 23 | 49.7 | – | 74 | 10 | – |
| CN1CC[C@H](c2c(O)cc(O)c3c(=O)cc(-c4ccc(Cl)cc4Cl)oc23)[C@H](O)C1 (relative stereo) [cis-(±)-2-(2,4-dichlorophenyl)-5,7-dihydroxy-8-[4'-(3'-hydroxy-1'-methyl)-piperidinyl]-4H-1-benzopyran-4-one] | 0 | 41.7 | 57.2 | 49.5 | 76.1 | 5.7 | – |
| CN1CC[C@H](c2c(O)cc(O)c3c(=O)cc(-c4ccc(N)cc4)oc23)[C@H](O)C1 (racemic) [(±) 4-Aminophenyl H H 2HCl, 2 H2 O, cis-(±)-2-(4-aminophenyl)-5,7-dihydroxy-8-[4'-(3'-hydroxy-1'-methyl)-piperidinyl]-4H-1-benzopyran-4-one] | – | – | – | – | – | – | ED50 ([1]; p.o.): 7.4 mg/kg |
| Cc1cc(=O)c2c(O)cc(O)c([C@H]3CCN(C)C[C@H]3O)c2o1 (relative stereo) [(±) CH3 H CH3 HCl, cis-5,7-Dihydroxy-2-methyl-8-[4'-(3'-hydroxy-1'-methyl)-piperidinyl]-4H-1-benzopyran-4-one hydrochloride] | 28.8 | 31.8 | 29.8 | 35.8 | 39.2 | 12.5 | – |
